The subject of assay [1] is Puccinia recondita f sp. tritici. As to the kind of experiment: Test L (L1-L5): wheat leaf rust, Compound 81 alone and in mixtures, observed and Colby expected control. Format: in vivo.
For assay [2], the system named is Septoria tritici. In words: Test M (M1-M5): wheat leaf blotch, Compound 81 alone and in mixtures, observed and Colby expected control. The format is in vivo.
Assay [3] deals with Blumeria graminis f. sp. tritici. As to the kind of experiment: Test K (K1-K5): wheat powdery mildew, Compound 81 alone and in mixtures, observed and Colby expected control. The format is in vivo.
Assay [4] deals with Septoria tritici. As to the kind of experiment: Test F: wheat leaf blotch, preventive spray on wheat seedlings, visual disease rating. The format is in vivo. The note with it: preventive spray, 100 = 100% disease control, rating without asterisk. The text has this:
(§1) A hyphen (-) indicates no test results.

The test system of assay [5] is Alternaria solani. As to the kind of experiment: Test B: tomato early blight, preventive spray on tomato seedlings, visual disease rating. Particulars: tomato early blight, preventive spray; 100 = 100% disease control; rating without asterisk.
Assay [6] has as its system Septoria nodorum. As to the kind of experiment: Test E: Septoria glume blotch, preventive spray on wheat seedlings, visual disease rating. Particulars: Septoria glume blotch on wheat, preventive spray; 100 = 100% disease control; rating without asterisk.
The subject of assay [7] is Botrytis cinerea. As to the kind of experiment: Test A: tomato Botrytis, preventive spray on tomato seedlings, visual disease rating. The note with it: tomato Botrytis, preventive spray; 100 = 100% disease control, 0 = no control relative to controls; rating without asterisk.
Assay [8] concerns Puccinia recondita f. sp. tritici. In words: Test G: wheat leaf rust, spray after inoculation (curative) on wheat seedlings, visual disease rating. Format: in vivo. The note with it: spray after inoculation, 100 = 100% disease control, rating without asterisk.
Source text: as §1

Assay [9] has the same test system. In words: Test H: wheat leaf rust, preventive spray on wheat seedlings, visual disease rating. The note with it: wheat leaf rust, preventive spray; 100 = 100% disease control; rating without asterisk.
Assay [10] has as its system Blumeria graminis f. sp. tritici. In words: Test I: wheat powdery mildew, preventive spray on wheat seedlings, visual disease rating. Particulars: wheat powdery mildew, preventive spray; 100 = 100% disease control; rating without asterisk.

For `CC1CCN(c2c(-c3c(F)cc(F)cc3F)c(Cl)nc3ncnn23)CC1` [BAS600, 5-chloro-6-(2,4,6-trifluorophenyl)-7-(4-methylpiperidin-1-yl)[1,2,4]triazolo[1,5-a]pyrimidine], the “Test L3 Obsd” value came out at 74% in assay [1] (component (b) 0.08 ppm alone), 88% in assay [1] (component (b) 0.4 ppm alone), 99% in assay [1] (component (b) 2 ppm alone) and 100% in assay [1] (component (b) 10 ppm alone). The “Test M2 Obsd, disease control rating” value in assay [2] (component (b) 0.016 ppm alone) worked out at 0%; in [2] (component (b) 0.08 ppm alone), 0%; in [2] (component (b) 0.4 ppm alone) it was 93%; in assay [2] (component (b) 2 ppm alone), 100%. The “Test K3 Obsd” value is reported as 0% in assay [3] (component (b) 0.08 ppm alone), 0% in assay [3] (component (b) 0.4 ppm alone), 96% in [3] (component (b) 2 ppm alone) and 100% in assay [3] (component (b) 10 ppm alone).
Regarding `Cn1cc(C(=O)Nc2ccc(F)cc2-c2ccc(Cl)c(Cl)c2)c(C(F)F)n1` [bixafen], the “Test L3 Obsd” value is listed as 9% in [1] (component (b) 0.08 ppm alone), 88% in assay [1] (component (b) 0.4 ppm alone), 99% in [1] (component (b) 2 ppm alone) and 100% in assay [1] (component (b) 10 ppm alone). Besides, the “Test M2 Obsd, disease control rating” value in assay [2] (component (b) 0.08 ppm alone) worked out at 0%; in assay [2] (component (b) 0.4 ppm alone), 33%; in assay [2] (component (b) 2 ppm alone), 89%. For the same molecule, the “Test K3 Obsd” value in assay [3] (component (b) 0.08 ppm alone) turned out to be 0%; in assay [3] (component (b) 0.4 ppm alone), 0%; in assay [3] (component (b) 2 ppm alone) it was 64%; in [3] (component (b) 10 ppm alone), 99%.
For the molecule `Cc1nn(C)c(Nc2c(F)cc(I)cc2F)c1-c1ccc(F)cc1Br` [compound 218], in assay [4], the “Test F rating (% disease control)” value was found to be 100%. For the same molecule, in assay [5], the “Test B rating (% disease control)” value stood at 68%. Besides, the “Test E rating (% disease control)” value in assay [6] was 86%. Also, the “Test A rating (% disease control)” value in [7] amounted to 100%. Further, in assay [8], the “Test G rating (% disease control)” value was determined as 0%. Besides, in assay [9], the “Test H rating (% disease control)” value was found to be 99%. Further, in [10], the “Test I rating (% disease control)” value is 99%.
On to `COc1ccc(-c2c(C)nn(C)c2Nc2c(F)cc(F)cc2I)c(Cl)c1` [compound 219], for which the “Test F rating (% disease control)” value in assay [4] was 100%. For the same molecule, the “Test B rating (% disease control)” value in assay [5] was determined as 100%. The “Test E rating (% disease control)” value in assay [6] is 100%. For the same molecule, in assay [7], the “Test A rating (% disease control)” value stood at 100%. The “Test G rating (% disease control)” value in [8] was 99%. For the same molecule, the “Test H rating (% disease control)” value in assay [9] came to 100%. Moreover, in [10], the “Test I rating (% disease control)” value is on record as 99%.
With `COc1ccc(-c2c(C)nn(C)c2Nc2c(F)cc(I)cc2F)c(Cl)c1` [compound 220], in [4], the “Test F rating (% disease control)” value turned out to be 100%. Moreover, in assay [5], the “Test B rating (% disease control)” value worked out at 69%. In addition, the “Test E rating (% disease control)” value in assay [6] stood at 73%. For the same molecule, the “Test A rating (% disease control)” value in assay [7] turned out to be 100%. Further, in assay [8], the “Test G rating (% disease control)” value is given as 0%. For the same molecule, in assay [9], the “Test H rating (% disease control)” value is given as 97%. In addition, the “Test I rating (% disease control)” value in [10] came to 96%.
For `COc1ccc(-c2c(C)nn(C)c2Nc2c(F)cc(F)cc2Br)c(Cl)c1` [compound 221], the “Test F rating (% disease control)” value in assay [4] worked out at 100%. Further, in assay [5], the “Test B rating (% disease control)” value is 100%. Besides, the “Test E rating (% disease control)” value in assay [6] is listed as 97%. In addition, the “Test A rating (% disease control)” value in assay [7] was 100%. Besides, the “Test G rating (% disease control)” value in [8] is on record as 73%. The “Test H rating (% disease control)” value in [9] is 99%. Further, the “Test I rating (% disease control)” value in assay [10] was 100%.
Take `Cc1nn(C)c(Nc2c(F)cc(Cl)cc2Cl)c1-c1ccc(F)cc1I` [compound 222]: the “Test F rating (% disease control)” value in assay [4] came out at 100%. For the same molecule, the “Test B rating (% disease control)” value in assay [5] is listed as 77%. Also, the “Test E rating (% disease control)” value in assay [6] is reported as 0%. The “Test A rating (% disease control)” value in assay [7] came to 98%. For the same molecule, the “Test G rating (% disease control)” value in assay [8] came to 0%. Further, in assay [9], the “Test H rating (% disease control)” value amounted to 90%. Besides, in [10], the “Test I rating (% disease control)” value is listed as 96%.
On to `Cc1nn(C)c(Nc2c(F)cc(Br)cc2Br)c1-c1ccc(F)cc1I` [compound 223], for which, in assay [4], the “Test F rating (% disease control)” value came out at 100%. Also, the “Test B rating (% disease control)” value in assay [5] was determined as 88%. In addition, the “Test E rating (% disease control)” value in assay [6] was found to be 0%. Besides, the “Test A rating (% disease control)” value in assay [7] amounted to 98%. In addition, the “Test G rating (% disease control)” value in assay [8] is on record as 0%. The “Test H rating (% disease control)” value in assay [9] stood at 97%. The “Test I rating (% disease control)” value in [10] was determined as 99%.
Turning to `Cc1nn(C)c(Nc2c(F)cc(Cl)cc2F)c1-c1ccc(F)cc1I` [compound 225], in [4], the “Test F rating (% disease control)” value is reported as 100%. The “Test B rating (% disease control)” value in [5] was found to be 68%. For the same molecule, the “Test E rating (% disease control)” value in assay [6] was 0%. Besides, the “Test A rating (% disease control)” value in assay [7] amounted to 99%. Further, the “Test G rating (% disease control)” value in assay [8] turned out to be 0%. For the same molecule, in [9], the “Test H rating (% disease control)” value was 99%. In addition, the “Test I rating (% disease control)” value in assay [10] was determined as 100%.
For the molecule `Cc1nn(C)c(Nc2c(F)cc(F)cc2Br)c1-c1ccc(F)cc1I` [compound 226], the “Test F rating (% disease control)” value in assay [4] is 100%. In assay [5], the “Test B rating (% disease control)” value was found to be 97%. Besides, the “Test E rating (% disease control)” value in [6] is recorded as 60%. For the same molecule, the “Test A rating (% disease control)” value in assay [7] is recorded as 97%. Besides, in assay [8], the “Test G rating (% disease control)” value was determined as 0%. Moreover, in assay [9], the “Test H rating (% disease control)” value is given as 99%. Besides, the “Test I rating (% disease control)” value in assay [10] was determined as 100%.
On to `Cc1nn(C)c(Nc2c(Cl)cc(F)cc2Cl)c1-c1ccc(Cl)cc1F` [compound 227], for which the “Test F rating (% disease control)” value in assay [4] was determined as 100%. Besides, the “Test B rating (% disease control)” value in [5] is reported as 0%. Besides, in assay [6], the “Test E rating (% disease control)” value is recorded as 0%. The “Test A rating (% disease control)” value in [7] is 0%. The “Test G rating (% disease control)” value in assay [8] is recorded as 0%. Further, in assay [9], the “Test H rating (% disease control)” value was 95%. For the same molecule, the “Test I rating (% disease control)” value in assay [10] was found to be 96%.
Consider `Cc1nn(C)c(Nc2c(F)cc(F)cc2Cl)c1-c1ccc(Cl)cc1F` [compound 228], for which, in [4], the “Test F rating (% disease control)” value came to 100%. Also, in assay [5], the “Test B rating (% disease control)” value came out at 40%. Besides, in [6], the “Test E rating (% disease control)” value was 0%. For the same molecule, the “Test A rating (% disease control)” value in assay [7] was found to be 68%. Further, in [8], the “Test G rating (% disease control)” value was 0%. For the same molecule, in assay [9], the “Test H rating (% disease control)” value is on record as 96%. For the same molecule, the “Test I rating (% disease control)” value in assay [10] came to 81%.
Regarding `Cc1nn(C)c(Nc2c(F)cc(F)cc2Br)c1-c1ccc(Cl)cc1F` [compound 229], the “Test F rating (% disease control)” value in [4] came out at 100%. For the same molecule, the “Test B rating (% disease control)” value in [5] is 99%. Also, the “Test E rating (% disease control)” value in assay [6] is 64%. For the same molecule, in [7], the “Test A rating (% disease control)” value is 99%. Further, in assay [8], the “Test G rating (% disease control)” value was 9%. Besides, the “Test H rating (% disease control)” value in assay [9] came out at 97%. Besides, the “Test I rating (% disease control)” value in assay [10] turned out to be 98%.
Regarding `Cc1nn(C)c(Nc2c(F)cc(Cl)cc2F)c1-c1ccc(Cl)cc1F` [compound 230], the “Test F rating (% disease control)” value in assay [4] is 100%. The “Test B rating (% disease control)” value in assay [5] stood at 0%. The “Test E rating (% disease control)” value in assay [6] is 0%. Further, the “Test A rating (% disease control)” value in [7] is given as 40%. Also, in [8], the “Test G rating (% disease control)” value is given as 0%. Moreover, the “Test H rating (% disease control)” value in assay [9] stood at 94%. Further, the “Test I rating (% disease control)” value in assay [10] was 95%.
As for `Cc1nn(C)c(Nc2c(F)cc(Cl)cc2Cl)c1-c1ccc(Cl)cc1F` [compound 231], the “Test F rating (% disease control)” value in assay [4] is 100%. Also, in [5], the “Test B rating (% disease control)” value came out at 58%. The “Test E rating (% disease control)” value in assay [6] stood at 0%. In addition, the “Test A rating (% disease control)” value in assay [7] was 33%. Further, the “Test G rating (% disease control)” value in assay [8] is 9%. In [9], the “Test H rating (% disease control)” value was 94%. The “Test I rating (% disease control)” value in assay [10] stood at 99%.
`CCCN(CC)CC1COC2(CCC(C(C)(C)C)CC2)O1` (centres unmarked) [spiroxamine]: the figures for the “Test M5 Obsd disease control rating” value in assay [2] (component (b) alone 10 ppm), in assay [2] (component (b) alone 40 ppm) and in assay [2] (component (b) alone 200 ppm) were 0%, 3% and 0%, respectively. The “Test K3 Exp” value in assay [3] (component (b) 0.4 ppm alone) stood at 0%; in assay [3] (component (b) 2 ppm alone) it was 0%; in [3] (component (b) 10 ppm alone) it was 0%; in assay [3] (component (b) 40 ppm alone), 91%. For the same molecule, the “Test K3 Obsd” value in [3] (component (b) 0.4 ppm alone) was 0%; in assay [3] (component (b) 2 ppm alone), 0%; in [3] (component (b) 10 ppm alone) it was 0%; in assay [3] (component (b) 40 ppm alone), 99%.

The record behind these values is patent US20170150719A1, “FUNGICIDAL PYRAZOLES AND THEIR MIXTURES” (E I DU PONT DE NEMOURS AND COMPANY, priority 2010, published 2017).
